# Data: patent publication US9221827B2, “Antimicrobial compounds and methods of making and using the same” (Melinta Therapeutics, Inc., priority 2011, dated 2015)
# System: Escherichia coli strain ATCC25922
# Test: standard microdilution assay to determine minimum inhibitory concentrations (MICs)
# Assay type: cell-based
# Settings: Escherichia coli strain ATCC25922, microdilution
# In short: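 MICs come from CLSI-guided microdilution in 100 μl, run alongside reference-strain performance standards. Values appear as "+" or "−" relative to 16 micrograms/ml, with "N/A" marking missing data.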
row,SMILES,E. coli ATCC25922 MIC
1,CCc1cc(CCCCN)cc(-c2cc3cn(-c4ccc(CNCCCNC(=N)N)cc4)c(=O)nc3[nH]2)c1 [Compound 123],+ (a “+” indicates that the compound has an MIC value of 16 micrograms/ml or less)
2,CC(C)(CN)CCc1cc(F)c(Cl)c(-c2cc3cn(-c4ccc(CNCCCNC(=N)N)cc4)c(=O)nc3[nH]2)c1 [Compound 125],+ (a “+” indicates that the compound has an MIC value of 16 micrograms/ml or less)
3,CC(CCN)Cc1cc(F)c(Cl)c(-c2cc3cn(-c4ccc(CNCCCNC(=N)N)cc4)c(=O)nc3[nH]2)c1 (stereo not drawn) [Compound 128],+ (a “+” indicates that the compound has an MIC value of 16 micrograms/ml or less)
4,CC(CCN)Cc1cc(-c2cc3cn(-c4ccc(CNCCCNC(=N)N)cc4)c(=O)nc3[nH]2)cc(F)c1Cl (stereo not drawn) [Compound 129],+ (a “+” indicates that the compound has an MIC value of 16 micrograms/ml or less)
5,CC(C)(N)CCCc1ccc(F)c(-c2cc3cn(-c4ccc(CNCCCNC(=N)N)cc4)c(=O)nc3[nH]2)c1 [Compound 130],+ (a “+” indicates that the compound has an MIC value of 16 micrograms/ml or less)
6,CC(C)(N)CCCc1cc(OC(F)(F)F)cc(-c2cc3cn(-c4ccc(CNCCCNC(=N)N)cc4)c(=O)nc3[nH]2)c1 [Compound 131],+ (a “+” indicates that the compound has an MIC value of 16 micrograms/ml or less)
7,CC(CCN)Cc1cc(Cl)c(F)c(-c2cc3cn(-c4ccc(CNCCCNC(=N)N)cc4)c(=O)nc3[nH]2)c1 (stereo not drawn) [Compound 132],+ (a “+” indicates that the compound has an MIC value of 16 micrograms/ml or less)
8,Cc1cc(CCCCN)cc(-c2cc3cn(-c4ccc(CNCCCNC(=N)N)cc4)c(=O)nc3[nH]2)c1F [Compound 133],+ (a “+” indicates that the compound has an MIC value of 16 micrograms/ml or less)
9,Cc1c(C#N)cc(CCCCN)cc1-c1cc2cn(-c3ccc(CNCCCNC(=N)N)cc3)c(=O)nc2[nH]1 [Compound 134],+ (a “+” indicates that the compound has an MIC value of 16 micrograms/ml or less)
10,CCc1cc(CCCCN)cc(-c2cc3cn(-c4ccc(CNCCCNC(=N)N)cc4)c(=O)nc3[nH]2)c1F [Compound 135],+ (a “+” indicates that the compound has an MIC value of 16 micrograms/ml or less)
11,N=C(N)NCCCNCc1ccc(-n2cc3cc(-c4cc(CCC5(CN)CC5)ccc4F)[nH]c3nc2=O)cc1 [Compound 136],+ (a “+” indicates that the compound has an MIC value of 16 micrograms/ml or less)
12,N=C(N)NCCCNCc1ccc(-n2cc3cc(-c4cc(CCC5(CN)CC5)cc(OC(F)(F)F)c4)[nH]c3nc2=O)cc1 [Compound 137],+ (a “+” indicates that the compound has an MIC value of 16 micrograms/ml or less)
13,N=C(N)NCCCNCc1ccc(-n2cc3cc(-c4cc(CCC5(CN)CCC5)cc(F)c4Cl)[nH]c3nc2=O)cc1 [Compound 138],+ (a “+” indicates that the compound has an MIC value of 16 micrograms/ml or less)
14,N=C(N)NCCCNCc1ccc(-n2cc3cc(-c4cc(CCCCN)c(OC(F)F)cc4F)[nH]c3nc2=O)cc1 [Compound 139],+ (a “+” indicates that the compound has an MIC value of 16 micrograms/ml or less)
15,CC(CN)CN1CC(NC(=O)Nc2nc(=O)c(-c3ccc(CNCCCNC(=N)N)cc3)c[nH]2)CC1COCc1c(Cl)cccc1Cl (stereo not drawn) [Compound 150],− (a “−” indicates that the compound has an MIC value greater than 16 micrograms/ml)
16,CNC[C@@H]1C[C@@H](NC(=O)Nc2nc(=O)c(-c3ccc(CNCCCNC(=N)N)cc3)c[nH]2)CN1C[C@@H](C)CN [Compound 151],+ (a “+” indicates that the compound has an MIC value of 16 micrograms/ml or less)
17,COCCNC[C@@H]1C[C@@H](NC(=O)Nc2nc(=O)c(-c3ccc(CNCCCNC(=N)N)cc3)c[nH]2)CN1C[C@@H](C)CN [Compound 152],+ (a “+” indicates that the compound has an MIC value of 16 micrograms/ml or less)
18,C[C@@H](CN)CN1C[C@H](NC(=O)Nc2nc(=O)c(-c3ccc(CNCCCNC(=N)N)cc3)c[nH]2)C[C@H]1CNCCC1CC1 [Compound 153],+ (a “+” indicates that the compound has an MIC value of 16 micrograms/ml or less)
19,N=C(N)NCCCNCc1ccc(-c2c[nH]c(NC(=O)Nc3ccc(C4CC4)cc3OCCCN)nc2=O)cc1 [Compound 184],+ (a “+” indicates that the compound has an MIC value of 16 micrograms/ml or less)
20,COc1cccc(OCCCN)c1NC(=O)Nc1nc(=O)c(-c2ccc(CNCCCNC(=N)N)cc2)c[nH]1 [Compound 185],− (a “−” indicates that the compound has an MIC value greater than 16 micrograms/ml)
21,CC(C)c1cccc(OCCCN)c1NC(=O)Nc1nc(=O)c(-c2ccc(CNCCCNC(=N)N)cc2)c[nH]1 [Compound 186],− (a “−” indicates that the compound has an MIC value greater than 16 micrograms/ml)
22,N=C(N)NCCCNCc1ccc(-c2c[nH]c(NC(=O)Nc3c(Cl)cccc3OCCCN)nc2=O)cc1 [Compound 187],− (a “−” indicates that the compound has an MIC value greater than 16 micrograms/ml)
23,N=C(N)NCCCNCc1ccc(-c2c[nH]c(NC(=O)Nc3cc(C(F)F)ccc3OCCCN)nc2=O)cc1 [Compound 188],+ (a “+” indicates that the compound has an MIC value of 16 micrograms/ml or less)
24,N=C(N)NCCCNCc1ccc(-c2c[nH]c(NC(=O)Nc3c(OCCCN)cccc3C3CC3)nc2=O)cc1 [Compound 189],− (a “−” indicates that the compound has an MIC value greater than 16 micrograms/ml)
25,N=C(N)NCCCNCc1ccc(-c2c[nH]c(NC(=O)Nc3c(CO)cccc3OCCCN)nc2=O)cc1 [Compound 190],− (a “−” indicates that the compound has an MIC value greater than 16 micrograms/ml)
26,Cc1c(-c2cc3cn(-c4ccc(CNCCCNC(=N)N)cc4)c(=O)nc3[nH]2)cc(CCCCN)cc1C(F)(F)F [Compound 212],+ (a “+” indicates that the compound has an MIC value of 16 micrograms/ml or less)
27,N=C(N)NCCCNCc1ccc(-n2cc3cc(-c4cc(CCCCN)cc(OC(F)F)c4Cl)[nH]c3nc2=O)cc1 [Compound 214],+ (a “+” indicates that the compound has an MIC value of 16 micrograms/ml or less)
28,COC(CCCN)c1cc(OC(F)(F)F)cc(-c2cc3cn(-c4ccc(CNCCCNC(=N)N)cc4)c(=O)nc3[nH]2)c1 (stereo not drawn) [Compound 216],+ (a “+” indicates that the compound has an MIC value of 16 micrograms/ml or less)
29,CCc1cc(CCCCN)cc(-c2cc3cn(-c4ccc(CNCCCNC(=N)N)cc4)c(=O)nc3[nH]2)c1Cl [Compound 217],+ (a “+” indicates that the compound has an MIC value of 16 micrograms/ml or less)
30,N=C(N)NCCCNCc1ccc(-n2cc3cc(-c4cc(CCCCN)cc(F)c4C(F)(F)F)[nH]c3nc2=O)cc1 [Compound 218],+ (a “+” indicates that the compound has an MIC value of 16 micrograms/ml or less)
